# Reference: patent US7928140B2, “Benzothiazole PI3 kinase modulators for cancer treatment” (Amgen Inc., priority 2007, dated 2011)
# Assays:
# [1] = target: T1, PI3K α (Homo sapiens, UniProt P42336); experiment: In vitro PI3 kinase enzyme assay (alpha), ATP loss, bioluminescence; format: biochemical; conditions: read-out: PI3Kα ATP loss IC50;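 note: purified p110α/p85 heterodimer acting on PtdIns(4,5)P2 at room temperature, remaining ATP read by luminescence, inhibition scaled between compound-free wells with and without enzyme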
# T1 construct: Full length p110 subunits of PI3K α, β and δ, N-terminally labeled with polyHis tag; polyHis (N); made in house; host or cells: Sf9 insect cells (baculovirus)
# T1 sequence (P42336 whole entry, species assumed): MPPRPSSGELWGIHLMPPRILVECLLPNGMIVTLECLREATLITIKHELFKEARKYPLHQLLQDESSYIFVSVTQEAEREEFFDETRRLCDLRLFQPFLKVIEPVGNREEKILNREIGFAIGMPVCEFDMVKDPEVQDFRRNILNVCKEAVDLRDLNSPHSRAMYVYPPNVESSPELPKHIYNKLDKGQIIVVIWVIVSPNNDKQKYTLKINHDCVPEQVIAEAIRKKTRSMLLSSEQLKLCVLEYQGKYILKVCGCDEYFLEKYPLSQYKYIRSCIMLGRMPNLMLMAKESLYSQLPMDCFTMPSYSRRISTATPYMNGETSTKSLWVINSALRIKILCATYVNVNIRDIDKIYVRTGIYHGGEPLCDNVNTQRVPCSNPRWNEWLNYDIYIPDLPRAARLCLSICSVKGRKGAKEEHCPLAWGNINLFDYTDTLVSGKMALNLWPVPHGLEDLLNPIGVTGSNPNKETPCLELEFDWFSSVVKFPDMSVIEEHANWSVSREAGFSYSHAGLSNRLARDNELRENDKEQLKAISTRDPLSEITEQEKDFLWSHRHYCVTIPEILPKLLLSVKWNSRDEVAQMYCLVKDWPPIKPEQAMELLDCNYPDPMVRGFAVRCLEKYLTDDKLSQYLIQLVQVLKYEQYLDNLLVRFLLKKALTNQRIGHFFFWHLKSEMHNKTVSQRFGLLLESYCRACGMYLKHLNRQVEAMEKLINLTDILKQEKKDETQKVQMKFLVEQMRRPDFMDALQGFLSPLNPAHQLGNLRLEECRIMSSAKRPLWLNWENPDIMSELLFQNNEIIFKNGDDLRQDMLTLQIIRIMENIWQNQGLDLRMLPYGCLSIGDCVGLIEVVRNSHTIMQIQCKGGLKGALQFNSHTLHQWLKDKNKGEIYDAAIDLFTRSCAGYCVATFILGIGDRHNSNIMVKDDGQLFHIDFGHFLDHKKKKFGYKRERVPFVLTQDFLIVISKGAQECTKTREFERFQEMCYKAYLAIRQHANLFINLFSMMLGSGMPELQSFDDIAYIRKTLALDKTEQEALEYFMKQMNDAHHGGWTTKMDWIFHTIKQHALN
# T1 sequence (P27986 whole entry partner, species assumed): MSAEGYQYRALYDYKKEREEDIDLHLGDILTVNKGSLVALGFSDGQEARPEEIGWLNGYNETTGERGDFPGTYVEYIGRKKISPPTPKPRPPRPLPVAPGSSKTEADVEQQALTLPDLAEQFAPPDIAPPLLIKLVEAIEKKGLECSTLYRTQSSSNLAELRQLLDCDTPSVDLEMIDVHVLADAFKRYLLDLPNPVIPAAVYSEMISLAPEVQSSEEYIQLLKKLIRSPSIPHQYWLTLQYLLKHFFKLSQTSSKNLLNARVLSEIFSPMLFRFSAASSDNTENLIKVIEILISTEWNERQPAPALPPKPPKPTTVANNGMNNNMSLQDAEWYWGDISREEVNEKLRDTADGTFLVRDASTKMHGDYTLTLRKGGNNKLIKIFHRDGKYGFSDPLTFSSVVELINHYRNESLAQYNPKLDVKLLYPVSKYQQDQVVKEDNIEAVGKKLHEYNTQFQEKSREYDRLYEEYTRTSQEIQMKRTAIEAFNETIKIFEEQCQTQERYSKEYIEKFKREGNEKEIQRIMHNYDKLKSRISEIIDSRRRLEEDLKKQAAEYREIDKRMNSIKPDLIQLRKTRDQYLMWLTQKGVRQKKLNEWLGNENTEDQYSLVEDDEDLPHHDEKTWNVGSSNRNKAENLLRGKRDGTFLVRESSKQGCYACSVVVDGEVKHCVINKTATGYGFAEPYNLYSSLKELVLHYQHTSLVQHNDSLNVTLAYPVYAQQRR
# [2] = target: T2, PI3K β (Homo sapiens, UniProt P42338); experiment: In vitro PI3 kinase enzyme assay (beta), ATP loss, bioluminescence; format: biochemical; conditions: read-out: PI3Kβ ATP loss IC50;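 note: purified p110β/p85 heterodimer with PtdIns(4,5)P2 as acceptor, incubated at room temperature, leftover ATP read by luminescence, inhibition scaled to compound-free wells with and without enzyme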
# T2 construct: Full length p110 subunits of PI3K α, β and δ, N-terminally labeled with polyHis tag; polyHis (N); made in house; host or cells: Sf9 insect cells (baculovirus)
# T2 sequence (P42338 whole entry): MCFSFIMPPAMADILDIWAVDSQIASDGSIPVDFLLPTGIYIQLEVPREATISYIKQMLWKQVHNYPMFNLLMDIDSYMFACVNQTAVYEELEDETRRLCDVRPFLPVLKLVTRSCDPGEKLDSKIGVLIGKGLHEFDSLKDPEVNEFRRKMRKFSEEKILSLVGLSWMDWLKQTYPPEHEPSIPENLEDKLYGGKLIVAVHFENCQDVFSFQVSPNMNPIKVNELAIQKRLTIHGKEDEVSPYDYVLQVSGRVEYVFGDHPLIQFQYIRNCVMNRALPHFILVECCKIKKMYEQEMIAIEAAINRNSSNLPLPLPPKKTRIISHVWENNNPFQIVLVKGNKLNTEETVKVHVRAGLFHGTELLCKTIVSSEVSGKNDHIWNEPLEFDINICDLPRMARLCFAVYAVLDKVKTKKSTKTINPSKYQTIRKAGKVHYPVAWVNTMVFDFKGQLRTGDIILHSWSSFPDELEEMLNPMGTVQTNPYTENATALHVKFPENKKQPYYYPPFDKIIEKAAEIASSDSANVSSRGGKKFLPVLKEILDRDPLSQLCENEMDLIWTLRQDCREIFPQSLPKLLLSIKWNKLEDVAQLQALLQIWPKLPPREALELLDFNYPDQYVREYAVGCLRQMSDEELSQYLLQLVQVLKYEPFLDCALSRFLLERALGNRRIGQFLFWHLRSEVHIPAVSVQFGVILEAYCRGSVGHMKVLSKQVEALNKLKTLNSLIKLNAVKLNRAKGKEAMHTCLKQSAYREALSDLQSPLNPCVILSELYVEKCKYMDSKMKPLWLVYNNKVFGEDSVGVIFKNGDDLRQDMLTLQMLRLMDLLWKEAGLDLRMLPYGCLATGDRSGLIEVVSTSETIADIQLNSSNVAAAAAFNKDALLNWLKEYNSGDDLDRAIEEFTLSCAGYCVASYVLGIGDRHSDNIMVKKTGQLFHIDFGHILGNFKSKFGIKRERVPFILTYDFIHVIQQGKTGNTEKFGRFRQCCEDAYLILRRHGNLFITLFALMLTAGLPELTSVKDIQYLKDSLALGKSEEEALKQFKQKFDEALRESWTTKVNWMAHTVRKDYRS
# T2 sequence (P27986 whole entry partner): as the sequence (P27986 whole entry partner, species assumed) above
SMILES,IC50 [1],IC50 [2]
"COCCCOc1nccc(-c2ccc3nc(NC(C)=O)sc3c2)n1 [Example 5, N-(6-(2-(3-methoxypropoxy)-4-pyrimidinyl)-1,3-benzothiazol-2-yl)acetamide]",–,> 40 µM
CC(=O)Nc1nc2ccc(-c3ccnc(OCCCN(C)C)n3)cc2s1 [Example 8],11.1 µM,> 40 µM
CC(=O)Nc1nc2ccc(-c3ccnc(OCCN(C)C)n3)cc2s1 [Example 9],6.07 µM,> 40 µM
CC(=O)Nc1nc2ccc(-c3ccnc(OCCN4CCOCC4)n3)cc2s1 [Example 11],–,> 40 µM
"CC(=O)Nc1nc2ccc(-c3ccnc(Cc4ccccc4)n3)cc2s1 [Example 13, N-(6-(2-Benzylpyrimidin-4-yl)benzo[d]thiazol-2-yl)acetamide]",4.48 µM,> 40 µM
"CC(=O)Nc1nc2ccc(-c3ccnc(CCCc4ccccc4)n3)cc2s1 [Example 14, N-(6-(2-(3-phenylpropyl)-4-pyrimidinyl)-1,3-benzothiazol-2-yl)acetamide]",2.75 µM,10.7 µM
"CC(=O)Nc1nc2ccc(-c3ccnc(CCc4ccccc4)n3)cc2s1 [Example 15, N-(6-(2-(2-phenylethyl)-4-pyrimidinyl)-1,3-benzothiazol-2-yl)acetamide]",–,6.47 µM
"CC(=O)Nc1nc2ccc(-c3ccnc(OCCc4cccnc4)n3)cc2s1 [Example 18, N-(6-(2-(2-(3-pyridinyl)ethoxy)-4-pyrimidinyl)-1,3-benzothiazol-2-yl)acetamide]",1.1 µM,32.2 µM
"CC(=O)Nc1nc2ccc(-c3ccnc(Sc4ccccc4)n3)cc2s1 [Example 21, N-(6-(2-(phenylsulfanyl)-4-pyrimidinyl)-1,3-benzothiazol-2-yl)acetamide]",–,0.309 µM
"CC(=O)Nc1nc2ccc(-c3ccnc(OCc4ccc5[nH]ccc5c4)n3)cc2s1 [Example 24, N-(6-(2-(1H-indol-5-ylmethoxy)-4-pyrimidinyl)-1,3-benzothiazol-2-yl)acetamide]",8.03 µM,8.86 µM
"CC(=O)Nc1nc2ccc(-c3ccnc(OCC4CCN(C)CC4)n3)cc2s1 [Example 25, N-(6-(2-((1-methyl-4-piperidinyl)methoxy)-4-pyrimidinyl)-1,3-benzothiazol-2-yl)acetamide]",10.7 µM,26.7 µM
"COc1ccccc1Sc1nccc(-c2ccc3nc(NC(C)=O)sc3c2)n1 [Example 28, N-(6-(2-((2-methoxyphenyl)sulfanyl)-4-pyrimidinyl)-1,3-benzothiazol-2-yl)acetamide]",–,0.491 µM
"CC(=O)Nc1ccc(Sc2nccc(-c3ccc4nc(NC(C)=O)sc4c3)n2)cc1 [Example 29, N-(4-((4-(2-(acetylamino)-1,3-benzothiazol-6-yl)-2-pyrimidinyl)sulfanyl)phenyl)acetamide]",0.333 µM,2.4 µM
"CC(=O)Nc1nc2ccc(-c3ccnc(Sc4ccccc4C(C)(C)C)n3)cc2s1 [Example 30, N-(6-(2-((2-tert-butylphenyl)sulfanyl)-4-pyrimidinyl)-1,3-benzothiazol-2-yl)acetamide]",0.908 µM,1.42 µM
"CC(=O)Nc1nc2ccc(-c3ccnc(OC4CCN(C)CC4)n3)cc2s1 [Example 31, N-(6-(2-((1-methyl-4-piperidinyl)oxy)-4-pyrimidinyl)-1,3-benzothiazol-2-yl)acetamide]",2.38 µM,> 40 µM
"CC(=O)Nc1nc2ccc(-c3ccnc(OCCCN4CCOC4=O)n3)cc2s1 [Example 32, N-(6-(2-(3-(2-oxo-1,3-oxazolidin-3-yl)propoxy)-4-pyrimidinyl)-1,3-benzothiazol-2-yl)acetamide]",0.601 µM,> 40 µM
"CC(=O)Nc1nc2ccc(-c3ccnc(Oc4ccccc4)n3)cc2s1 [Example 33, N-(6-(2-phenoxy-4-pyrimidinyl)-1,3-benzothiazol-2-yl)acetamide]",–,5.97 µM
"CC(=O)Nc1nc2ccc(-c3ccnc(SCc4ccccc4C)n3)cc2s1 [Example 37, N-(6-(2-((2-methylbenzyl)sulfanyl)-4-pyrimidinyl)-1,3-benzothiazol-2-yl)acetamide]",0.119 µM,4.12 µM
"COc1ccc(COc2nccc(-c3ccc4nc(NC(C)=O)sc4c3)n2)cc1 [Example 38, N-(6-(2-((4-methoxybenzyl)oxy)-4-pyrimidinyl)-1,3-benzothiazol-2-yl)acetamide]",0.126 µM,–
"Nc1nc2ccc(-c3ccnc(NCCCc4ccccc4)n3)cc2s1 [Example 45, 6-(2-(3-Phenylpropylamino)pyrimidin-4-yl)benzo[d]thiazol-2-amine]",1.97 µM,0.455 µM

# The remaining lines, values ahead:
IC50 [1],IC50 [2],SMILES
1.56 µM,0.777 µM,"CC(=O)Nc1nc2ccc(-c3ccnc(N4CCCC4c4ccccc4C)n3)cc2s1 (racemic) [Example 262, N-(6-(2-(2-o-tolylpyrrolidin-1-yl)pyrimidin-4-yl)benzo[d]thiazol-2-yl)acetamide]"
2.62 µM,1.61 µM,"CC(=O)Nc1nc2ccc(-c3ccnc(N4CCCC4c4ccccc4)n3)cc2s1 (racemic) [Example 266, N-(6-(2-(2-phenylpyrrolidin-1-yl)pyrimidin-4-yl)benzo[d]thiazol-2-yl)acetamide]"
0.192 µM,0.126 µM,"COc1cccc(Sc2nccc(-c3ccc4nc(NC(C)=O)sc4c3)n2)c1 [Example 41, N-(6-(2-((3-methoxyphenyl)sulfanyl)-4-pyrimidinyl)-1,3-benzothiazol-2-yl)acetamide]"
1.21 µM,20.4 µM,"COCCCNc1nccc(-c2ccc3nc(NC(C)=O)sc3c2)n1 [Example 46, N-(6-(2-((3-methoxypropyl)amino)-4-pyrimidinyl)-1,3-benzothiazol-2-yl)acetamide]"
18.1 µM,> 40 µM,"COCCNc1nccc(-c2ccc3nc(N)sc3c2)n1 [Example 48, 6-(2-((2-methoxyethyl)amino)-4-pyrimidinyl)-1,3-benzothiazol-2-amine]"
2.58 µM,> 40 µM,"CC(=O)Nc1nc2ccc(-c3ccnc(N(C)C)n3)cc2s1 [Example 52, N-(6-(2-(dimethylamino)-4-pyrimidinyl)-1,3-benzothiazol-2-yl)acetamide]"
7.98 µM,> 40 µM,"CC(=O)Nc1nc2ccc(-c3ccnc(O)n3)cc2s1 [Example 53, N-(6-(2-hydroxy-4-pyrimidinyl)-1,3-benzothiazol-2-yl)acetamide]"
7.33 µM,> 40 µM,"O=C(CN1CCOCC1)Nc1nc2ccc(-c3ccnc(OCc4ccccc4)n3)cc2s1 [Example 54, N-(6-(2-(benzyloxy)-4-pyrimidinyl)-1,3-benzothiazol-2-yl)-2-(4-morpholinyl)acetamide]"
26.7 µM,7.75 µM,"CC(C)(O)C(=O)Nc1nc2ccc(-c3ccnc(OCc4ccccc4)n3)cc2s1 [Example 55, N-(6-(2-(benzyloxy)-4-pyrimidinyl)-1,3-benzothiazol-2-yl)-2-hydroxy-2-methylpropanamide]"
0.277 µM,8.83 µM,"CCC(=O)Nc1nc2ccc(-c3ccnc(OCc4ccccc4)n3)cc2s1 [Example 57, N-(6-(2-(benzyloxy)-4-pyrimidinyl)-1,3-benzothiazol-2-yl)propanamide]"
> 40 µM,3.93 µM,"O=C(Nc1nc2ccc(-c3ccnc(OCc4ccccc4)n3)cc2s1)c1ccccc1 [Example 58, N-(6-(2-(benzyloxy)-4-pyrimidinyl)-1,3-benzothiazol-2-yl)benzamide]"
11.3 µM,9.8 µM,"CN(C)CC(=O)Nc1nc2ccc(-c3ccnc(OCc4ccccc4)n3)cc2s1 [Example 59, N-(6-(2-(benzyloxy)-4-pyrimidinyl)-1,3-benzothiazol-2-yl)-N~2~,N~2~-dimethylglycinamide]"
38.8 µM,31 µM,"COc1ccc(S(=O)(=O)c2ncc(-c3ccc4nc(NC(C)=O)sc4c3)s2)cc1 [Example 61, N-(6-(2-(4-methoxyphenylsulfonyl)thiazol-5-yl)benzo[d]thiazol-2-yl)acetamide]"
0.556 µM,4.69 µM,"CC(=O)Nc1nc2ccc(-c3csc(S(=O)(=O)c4ccccc4F)n3)cc2s1 [Example 63, N-(6-(2-(2-fluorophenylsulfonyl)thiazol-4-yl)benzo[d]thiazol-2-yl)acetamide]"
0.846 µM,> 40 µM,"CC(=O)Nc1nc2ccc(-c3csc(S(=O)(=O)c4ccccc4)n3)cc2s1 [Example 64, N-(6-(2-(phenylsulfonyl)thiazol-4-yl)benzo[d]thiazol-2-yl)acetamide]"
0.221 µM,> 40 µM,"CC(=O)Nc1nc2ccc(-c3cccc(S(=O)(=O)c4ccccc4)n3)cc2s1 [Example 65, N-(6-(6-(phenylsulfonyl)pyridin-2-yl)benzo[d]thiazol-2-yl)acetamide]"
0.3 µM,3.35 µM,"CC(=O)Nc1nc2ccc(-c3cccc(S(=O)(=O)c4cccc(F)c4)n3)cc2s1 [Example 67, N-(6-(6-((3-fluorophenyl)sulfonyl)-2-pyridinyl)-1,3-benzothiazol-2-yl)acetamide]"
0.285 µM,1.54 µM,"COc1ccccc1S(=O)(=O)c1cccc(-c2ccc3nc(NC(C)=O)sc3c2)n1 [Example 70, N-(6-(6-((2-methoxyphenyl)sulfonyl)-2-pyridinyl)-1,3-benzothiazol-2-yl)acetamide]"
3.83 µM,1.44 µM,"Nc1nc2ccc(-c3cccc(NS(=O)(=O)c4ccccc4)n3)cc2s1 [Example 71, N-(6-(2-Aminobenzo[d]thiazol-6-yl)pyridin-2-yl)benzenesulfonamide]"
–,8.27 µM,"CC(=O)Nc1nc2ccc(-c3ccnc(Cl)n3)cc2s1 [Example 105, N-(6-(2-chloro-4-pyrimidinyl)-1,3-benzothiazol-2-yl)acetamide]"
0.641 µM,–,"CC(=O)Nc1nc2ccc(-c3cccc(N)c3)nc2s1 [Example 156, N-(5-(3-aminophenyl)thiazolo[5,4-b]pyridin-2-yl)acetamide]"
–,0.413 µM,"COc1ccc(S(=O)(=O)Nc2cccc(-c3ccc4nc(NC(C)=O)sc4c3)c2)cc1 [Example 260, N-(6-(3-(4-methoxyphenylsulfonamido)phenyl)benzo[d]thiazol-2-yl)acetamide]"
